Test results reported in article doi:10.1101/2025.07.07.663444v1, “Antifungal therapeutic potential of Candida albicans Fun30: screening and validation of novel inhibitors against Candida albicans” (biorxiv, 2025).
pKd: −log10 of the molar value.

Assays:
[1] = molecular target: T1, CaFun30 (Candida albicans, UniProt A0A1D8PTJ0); assay: biolayer interferometry (Octet R8, Ni-NTA sensor, protein immobilised); assay type: binding; conditions: PBS pH 7.4, 2 mM beta-mercaptoethanol; 1:1 model
T1 construct: gene FUN30; full length, cloned NheI/XhoI in pET21c(+), expressed in E. coli BL21(DE3) Rosetta, Ni-NTA purified
T1 sequence (A0A1D8PTJ0 1-1097): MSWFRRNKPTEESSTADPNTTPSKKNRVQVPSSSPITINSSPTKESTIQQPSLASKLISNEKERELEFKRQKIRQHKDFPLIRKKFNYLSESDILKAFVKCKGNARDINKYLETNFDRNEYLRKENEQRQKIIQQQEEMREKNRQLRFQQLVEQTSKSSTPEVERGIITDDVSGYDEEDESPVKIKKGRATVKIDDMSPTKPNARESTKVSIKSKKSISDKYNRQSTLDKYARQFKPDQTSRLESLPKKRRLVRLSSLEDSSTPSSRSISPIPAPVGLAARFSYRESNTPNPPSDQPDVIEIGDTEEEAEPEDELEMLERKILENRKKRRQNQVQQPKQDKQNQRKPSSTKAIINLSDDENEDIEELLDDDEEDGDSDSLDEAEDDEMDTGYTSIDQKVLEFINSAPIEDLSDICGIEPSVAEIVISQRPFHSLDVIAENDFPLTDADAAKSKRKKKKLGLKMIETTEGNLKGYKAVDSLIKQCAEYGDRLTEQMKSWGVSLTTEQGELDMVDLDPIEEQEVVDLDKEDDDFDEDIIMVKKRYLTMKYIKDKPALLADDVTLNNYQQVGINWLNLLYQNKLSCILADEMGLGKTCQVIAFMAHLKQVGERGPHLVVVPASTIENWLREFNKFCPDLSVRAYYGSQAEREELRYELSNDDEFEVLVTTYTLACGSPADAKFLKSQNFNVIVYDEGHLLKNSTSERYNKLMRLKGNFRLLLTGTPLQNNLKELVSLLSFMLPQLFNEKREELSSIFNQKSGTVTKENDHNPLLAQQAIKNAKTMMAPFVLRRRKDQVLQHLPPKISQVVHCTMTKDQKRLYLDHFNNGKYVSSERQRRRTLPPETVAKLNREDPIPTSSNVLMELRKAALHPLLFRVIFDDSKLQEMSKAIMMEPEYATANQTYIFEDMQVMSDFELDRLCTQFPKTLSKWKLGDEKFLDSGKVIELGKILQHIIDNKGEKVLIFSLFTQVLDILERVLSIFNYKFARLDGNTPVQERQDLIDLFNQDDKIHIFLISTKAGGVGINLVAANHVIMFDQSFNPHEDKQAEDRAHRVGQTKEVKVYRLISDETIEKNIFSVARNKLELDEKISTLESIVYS

[2] = molecular target: T2, CaFun30-c334 (Candida albicans, UniProt A0A1D8PTJ0); assay: as above; assay type: binding; conditions: PBS pH 7.4, 2 mM beta-mercaptoethanol; 1:1 model
T2 construct: gene FUN30; C-terminal fragment (RecA-like domain 2, motifs IV-VI, no ATPase activity), probably the last 334 residues; pCOLD I vector (N-terminal His tag implied), E. coli BL21(DE3) Rosetta, Ni-NTA purified
T2 sequence (A0A1D8PTJ0 764-1097): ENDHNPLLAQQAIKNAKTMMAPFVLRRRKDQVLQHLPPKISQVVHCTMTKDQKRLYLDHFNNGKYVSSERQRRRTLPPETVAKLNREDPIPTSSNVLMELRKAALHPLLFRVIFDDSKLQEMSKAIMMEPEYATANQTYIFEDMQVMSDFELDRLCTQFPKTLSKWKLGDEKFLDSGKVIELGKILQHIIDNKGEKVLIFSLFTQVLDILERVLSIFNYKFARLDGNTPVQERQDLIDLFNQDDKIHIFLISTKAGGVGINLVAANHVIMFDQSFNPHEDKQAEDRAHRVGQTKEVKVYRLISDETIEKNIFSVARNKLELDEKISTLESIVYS

SMILES | pKd [1] | pKd [2]
CCc1cc2c(=O)c(-c3ccc(F)cc3)c(C)oc2cc1OCc1ccccc1 [F1067-0218] | 3.90 | 4.74
Cc1nnc2sc(SCC(=O)Nc3ccc(Cl)cc3)nn2c1=O [F1853-0039] | 6.22 | 6.06
Cc1ccc(NC(=O)CSc2nc(C(F)(F)F)cc(=O)[nH]2)cc1Cl [F2716-0594] | 3.17 | 4.60
